Tests used:
[1] = biological target: T1, Rho-associated protein kinase 1 (Homo sapiens, UniProt Q13464); assay: Displacement of Y-27632 from ROCK-1 assessed as drop in intensity of binding signals by NMR competition experiment; set-up: concentration or dose not given beside the values
Target sequence in this assay (Q13464 2-1354 limits assumed): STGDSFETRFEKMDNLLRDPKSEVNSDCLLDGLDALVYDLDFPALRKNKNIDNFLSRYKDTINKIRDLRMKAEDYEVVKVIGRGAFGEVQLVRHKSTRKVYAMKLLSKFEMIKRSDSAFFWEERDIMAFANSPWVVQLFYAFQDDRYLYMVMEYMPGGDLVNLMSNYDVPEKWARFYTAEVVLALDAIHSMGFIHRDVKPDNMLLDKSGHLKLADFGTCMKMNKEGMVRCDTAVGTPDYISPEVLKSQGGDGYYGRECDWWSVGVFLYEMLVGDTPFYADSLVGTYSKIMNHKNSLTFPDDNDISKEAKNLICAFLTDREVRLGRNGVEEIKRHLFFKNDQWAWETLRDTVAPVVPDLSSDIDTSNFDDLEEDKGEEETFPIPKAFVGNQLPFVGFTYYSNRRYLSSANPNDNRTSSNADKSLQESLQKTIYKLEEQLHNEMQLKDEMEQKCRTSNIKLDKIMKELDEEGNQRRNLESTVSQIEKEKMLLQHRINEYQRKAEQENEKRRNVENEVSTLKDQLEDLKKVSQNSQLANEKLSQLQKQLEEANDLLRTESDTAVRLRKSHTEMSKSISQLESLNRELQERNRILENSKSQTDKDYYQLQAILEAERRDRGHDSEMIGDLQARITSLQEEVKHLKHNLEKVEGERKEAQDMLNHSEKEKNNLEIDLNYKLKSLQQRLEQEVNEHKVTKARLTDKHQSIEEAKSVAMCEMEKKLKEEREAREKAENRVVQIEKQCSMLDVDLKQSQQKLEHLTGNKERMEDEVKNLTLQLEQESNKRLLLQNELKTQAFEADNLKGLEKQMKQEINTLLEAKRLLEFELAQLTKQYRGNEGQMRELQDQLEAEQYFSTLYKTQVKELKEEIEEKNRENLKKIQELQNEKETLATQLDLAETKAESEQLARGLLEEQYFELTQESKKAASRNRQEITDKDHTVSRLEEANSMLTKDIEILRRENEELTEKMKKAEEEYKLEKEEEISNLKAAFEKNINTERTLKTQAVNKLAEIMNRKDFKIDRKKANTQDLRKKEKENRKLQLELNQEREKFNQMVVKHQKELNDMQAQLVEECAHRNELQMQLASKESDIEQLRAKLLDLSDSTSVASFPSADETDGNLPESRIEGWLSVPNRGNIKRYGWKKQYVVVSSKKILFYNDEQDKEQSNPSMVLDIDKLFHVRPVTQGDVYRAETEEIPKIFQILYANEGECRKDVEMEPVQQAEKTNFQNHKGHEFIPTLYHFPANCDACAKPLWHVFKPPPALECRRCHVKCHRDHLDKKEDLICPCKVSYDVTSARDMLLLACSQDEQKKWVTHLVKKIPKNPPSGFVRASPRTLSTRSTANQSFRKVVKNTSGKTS

[2] = biological target: T1, Rho-associated protein kinase 1; assay: Inhibition of ROCK-1 by Immobilized metal ion affinity-based fluorescence polarization assay
Target sequence in this assay (Q13464 whole entry): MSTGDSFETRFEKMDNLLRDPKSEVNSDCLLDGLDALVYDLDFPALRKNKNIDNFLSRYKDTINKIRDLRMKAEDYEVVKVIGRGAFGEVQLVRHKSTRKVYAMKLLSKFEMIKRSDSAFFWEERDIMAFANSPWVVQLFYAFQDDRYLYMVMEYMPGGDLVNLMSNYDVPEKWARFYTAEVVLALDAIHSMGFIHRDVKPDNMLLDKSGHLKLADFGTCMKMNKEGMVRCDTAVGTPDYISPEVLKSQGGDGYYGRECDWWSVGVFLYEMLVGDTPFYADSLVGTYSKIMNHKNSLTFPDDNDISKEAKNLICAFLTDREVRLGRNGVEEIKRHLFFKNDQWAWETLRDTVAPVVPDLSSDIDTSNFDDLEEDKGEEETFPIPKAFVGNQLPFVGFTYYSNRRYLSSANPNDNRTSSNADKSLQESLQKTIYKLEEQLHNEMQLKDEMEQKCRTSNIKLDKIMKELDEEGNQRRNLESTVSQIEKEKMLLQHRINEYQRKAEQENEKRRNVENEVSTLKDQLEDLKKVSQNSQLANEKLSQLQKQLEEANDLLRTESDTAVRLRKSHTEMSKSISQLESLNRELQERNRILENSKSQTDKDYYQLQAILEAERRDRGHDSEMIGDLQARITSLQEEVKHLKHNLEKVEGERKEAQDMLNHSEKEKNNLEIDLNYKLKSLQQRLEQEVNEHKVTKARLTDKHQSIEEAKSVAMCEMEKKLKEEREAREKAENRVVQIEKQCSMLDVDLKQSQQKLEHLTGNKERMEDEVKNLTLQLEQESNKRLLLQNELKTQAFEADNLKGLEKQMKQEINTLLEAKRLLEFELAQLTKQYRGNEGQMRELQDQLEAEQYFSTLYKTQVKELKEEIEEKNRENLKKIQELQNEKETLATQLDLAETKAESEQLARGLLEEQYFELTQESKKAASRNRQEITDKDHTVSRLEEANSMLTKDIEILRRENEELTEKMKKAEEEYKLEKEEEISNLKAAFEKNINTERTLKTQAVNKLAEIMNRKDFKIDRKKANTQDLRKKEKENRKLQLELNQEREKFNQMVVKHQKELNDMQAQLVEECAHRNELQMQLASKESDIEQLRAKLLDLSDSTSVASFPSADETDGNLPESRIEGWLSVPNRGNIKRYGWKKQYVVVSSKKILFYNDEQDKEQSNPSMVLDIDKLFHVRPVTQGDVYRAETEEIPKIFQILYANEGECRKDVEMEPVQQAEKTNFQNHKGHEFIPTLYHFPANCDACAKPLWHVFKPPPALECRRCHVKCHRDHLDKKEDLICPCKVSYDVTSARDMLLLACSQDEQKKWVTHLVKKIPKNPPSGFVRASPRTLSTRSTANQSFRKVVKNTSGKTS

[3] = Volume of distribution at steady state in Wistar rat; assay type: ADME, organism-based; conditions: in vivo, read-out: Vdss
[4] = Half life in rat liver microsome; assay type: ADME; conditions: liver microsomes
[5] = Half life in rat hepatocyte; assay type: ADME, cell-based, Liver; conditions: hepatocytes
[6] = Half life in human liver microsome; assay type: ADME; conditions: liver microsomes
[7] = Plasma clearance in Wistar rat; assay type: ADME, organism-based
[8] = Permeability from apical to basolateral side of human Caco2 cells; assay type: ADME, cell-based; conditions: Caco-2, read-out: permeability
[9] = Oral bioavailability in Wistar rat; assay type: ADME, organism-based; conditions: in vivo
[10] = Half life in Wistar rat; assay type: ADME, organism-based; conditions: in vivo
[11] = Half life in mouse liver microsome; assay type: ADME; conditions: liver microsomes
[12] = Permeability from basolateral to apical side of human Caco2 cells; assay type: ADME, cell-based; conditions: Caco-2, read-out: permeability
[13] = Dissociation constant, pKa of the compound; assay type: physicochemical
[14] = Oral bioavailability in C57 mouse; assay type: ADME, organism-based; conditions: in vivo
[15] = Volume of distribution at steady state in C57 mouse; assay type: ADME, organism-based; conditions: in vivo, read-out: Vdss
[16] = Half life in C57 mouse; assay type: ADME, organism-based; conditions: in vivo
[17] = Plasma clearance in C57 mouse; assay type: ADME, organism-based
[18] = biological target: Voltage-gated inwardly rectifying potassium channel KCNH2 (Homo sapiens, UniProt Q12809); assay: Displacement of [3H]dofetilide from human ERG
Chain of Voltage-gated inwardly rectifying potassium channel KCNH2 (Q12809 whole entry): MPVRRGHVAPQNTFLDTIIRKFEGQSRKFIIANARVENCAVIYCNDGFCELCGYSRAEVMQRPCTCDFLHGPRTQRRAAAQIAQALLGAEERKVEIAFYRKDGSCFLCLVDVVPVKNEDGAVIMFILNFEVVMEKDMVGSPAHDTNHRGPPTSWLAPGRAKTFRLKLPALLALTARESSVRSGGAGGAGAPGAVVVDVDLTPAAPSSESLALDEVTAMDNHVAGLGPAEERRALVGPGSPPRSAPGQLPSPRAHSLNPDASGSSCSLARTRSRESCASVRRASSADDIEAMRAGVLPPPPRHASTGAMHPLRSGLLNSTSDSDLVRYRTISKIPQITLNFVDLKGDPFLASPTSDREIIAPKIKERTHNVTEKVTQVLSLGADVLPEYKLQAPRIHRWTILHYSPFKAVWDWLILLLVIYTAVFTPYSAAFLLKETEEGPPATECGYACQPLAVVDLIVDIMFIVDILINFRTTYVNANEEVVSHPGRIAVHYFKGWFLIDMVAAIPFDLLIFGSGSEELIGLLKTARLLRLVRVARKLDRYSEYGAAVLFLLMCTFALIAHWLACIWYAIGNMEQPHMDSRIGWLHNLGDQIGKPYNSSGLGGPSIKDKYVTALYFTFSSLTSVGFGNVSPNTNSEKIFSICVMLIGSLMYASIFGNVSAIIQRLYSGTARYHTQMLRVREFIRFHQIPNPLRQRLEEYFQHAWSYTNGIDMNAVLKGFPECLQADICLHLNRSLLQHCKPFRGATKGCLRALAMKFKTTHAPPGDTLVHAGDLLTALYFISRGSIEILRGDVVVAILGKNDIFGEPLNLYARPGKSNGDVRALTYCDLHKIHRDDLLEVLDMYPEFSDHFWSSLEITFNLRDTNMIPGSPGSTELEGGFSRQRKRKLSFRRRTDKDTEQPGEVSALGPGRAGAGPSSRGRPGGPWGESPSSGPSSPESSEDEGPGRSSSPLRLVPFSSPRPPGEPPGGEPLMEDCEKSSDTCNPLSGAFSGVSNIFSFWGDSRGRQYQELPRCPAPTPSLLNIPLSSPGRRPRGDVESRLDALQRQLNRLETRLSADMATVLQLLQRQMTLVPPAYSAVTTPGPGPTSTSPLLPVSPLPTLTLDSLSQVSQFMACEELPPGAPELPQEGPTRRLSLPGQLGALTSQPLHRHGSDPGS

[19] = biological target: Rho-associated protein kinase 2 (Homo sapiens, UniProt O75116); assay: Inhibition of ROCK-2 by Immobilized metal ion affinity-based fluorescence polarization assay
[20] = biological target: T1, Rho-associated protein kinase 1; assay: Inhibition of ROCK-1
Target sequence in this assay (Q13464 whole entry): as the sequence (Q13464 whole entry) above

Structure (SMILES): c1ccc2cnccc2c1
- Activity [1]: 70%

Structure (SMILES): Nc1nccc2cc(CNCc3ccccc3)ccc12
- IC50 [2]: 6760 nM

Structure (SMILES): Nc1nccc2cc(CNCCc3cccc(C(F)(F)F)c3)ccc12
- IC50 [2]: 1700 nM

Structure (SMILES): c1ccn2ccnc2c1
- Activity [1]: 38%

Structure (SMILES): Nc1nc2c(c(=O)[nH]1)CC=N2
- Activity [1]: 68%

Structure (SMILES): Cc1ccc(CCNCc2ccc3c(N)nccc3c2)cc1
- IC50 [2]: 813 nM

Structure (SMILES): Nc1nccc2cc(CNCCOc3ccccc3)ccc12
- IC50 [2]: 589 nM

Structure (SMILES): COc1ccc(CCNCc2ccc3c(N)nccc3c2)cc1
- IC50 [2]: 1000 nM

Structure (SMILES): Cn1nc(C(C)(C)C)cc1N
- Activity [1]: 20%

Structure (SMILES): Nc1nccc2cc(O[C@H]3CCCN(Cc4ccccc4)C3)ccc12
- Vd [3]: 8.2 L/kg
- half-life [4]: 22 min
- half-life [5]: 27 min
- half-life [6]: 12 min
- clearance [7]: 295 mL/min/kg
- Papp A→B [8]: 2.2 ×10⁻⁶ cm/s
- bioavailability [9]: 7%
- half-life [10]: 492 min
- half-life [11]: > 120 min
- Papp B→A [12]: 1.5 ×10⁻⁶ cm/s

Structure (SMILES): CC1=NC(C(C)C)CO1 (configuration not stated)
- Activity [1]: 40%

Structure (SMILES): CC(=O)c1ccccc1
- Activity [1]: 60%

Structure (SMILES): Nc1nccc2cc(CNCc3cccc(Oc4ccccc4)c3)ccc12
- IC50 [2]: 575 nM

Structure (SMILES): NCc1ccc2c(N)nccc2c1
- pKa [13]: 7.6
- IC50 [2]: 7760 nM

Structure (SMILES): c1ccc2[nH]cnc2c1
- Activity [1]: 64%

Structure (SMILES): O=S(=O)(c1cccc2cnccc12)N1CCCNCC1 [FASUDIL]
- bioavailability [14]: 3.6%
- Vd [15]: 1.8 L/kg

Structure (SMILES): Nc1nccc2cc(OC3CCN(Cc4ccccc4)CC3)ccc12
- IC50 [2]: 4270 nM

Structure (SMILES): Nc1nccc2cc(CNCCc3ccc(Cl)c(Cl)c3)ccc12
- IC50 [2]: 776 nM

Structure (SMILES): Nc1ccnc2ccncc12
- Activity [1]: > 80%

Structure (SMILES): CS(=O)(=O)N1CCC[C@H](Oc2ccc3c(N)nccc3c2)C1
- IC50 [2]: > 100000 nM

Structure (SMILES): Nc1nccc2cc(CNCCNc3ccccc3)ccc12
- IC50 [2]: 1480 nM

Structure (SMILES): c1ccc2[nH]ncc2c1
- Activity [1]: > 80%

Structure (SMILES): c1cc(N2CCOCC2)ccn1
- Activity [1]: > 80%

Structure (SMILES): CN(CCc1ccccc1)Cc1ccc2c(N)nccc2c1
- IC50 [2]: 427 nM

Structure (SMILES): c1cc(-c2cnco2)ccn1
- Activity [1]: > 80%

Structure (SMILES): C[C@@H](N)[C@H]1CC[C@H](C(=O)Nc2ccncc2)CC1 [Y-27632]
- bioavailability [14]: 52%
- half-life [16]: 100 min
- clearance [17]: 50.9 mL/min/kg
- Vd [15]: 3.8 L/kg

Structure (SMILES): O=S(=O)(c1cccc2c(O)nccc12)N1CCCNCC1 [HYDROXYFASUDIL]
- Ki [18]: 7940 nM
- bioavailability [14]: 57%
- half-life [16]: 45 min
- clearance [17]: 34 mL/min/kg
- Vd [15]: 2.4 L/kg

Structure (SMILES): O=C(Nc1nccs1)c1ccncc1
- Activity [1]: > 80%

Structure (SMILES): Nc1ncnc2ccccc12
- Activity [1]: > 80%

Structure (SMILES): c1ccc(-n2cccc2)nc1
- Activity [1]: 30%

Structure (SMILES): Nc1nccc2cc(CNCCc3ccncc3)ccc12
- IC50 [2]: 1860 nM

Structure (SMILES): Nc1nccc2cc(CNCc3ccc4ccccc4c3)ccc12
- IC50 [2]: 3470 nM

Structure (SMILES): Nc1nccc2cc(OC3CCNCC3)ccc12
- IC50 [2]: 3630 nM

Structure (SMILES): Nc1nccc2cc(CNCCc3ccccc3)ccc12
- IC50 [19]: 1290 nM
- Ki [20]: 63.1 nM
- Ki [18]: 3160 nM
- IC50 [2]: 1290 nM

Structure (SMILES): CC1(C)C(=O)Nc2ccccc21
- Activity [1]: 25%

Structure (SMILES): NC(=O)c1ccccc1O
- Activity [1]: 34%
